Here are results for 41 compounds from patent US9233961B2, “Compounds and compositions for the treatment of parasitic diseases” (Novartis AG, priority 2013, dated 2016).

Assay [1] deals with Leishmania donovani axenic amastigote parasites. Put plainly: Leishmania donovani axenic amastigote proliferation assay. The class given is cell-based. The conditions noted are these: axenic amastigotes in vitro, read-out: L. donovani amastigotes EC50. How it is done: Leishmania Donovani Axenic Amastigote Proliferation Assay
Leishmania donovani axenic amastigote parasites are grown at 37° C., 5% CO2 in media made of RPMI 1640, 4 mM L-glutamine, 20% heat inactivated FBS, 100 units/ml of penicillin and 100 μg/ml of streptomycin, 23 μM Folic Acid, 100 μM Adenosine, 22 mM D-glucose, 25 mM MES. The pH of media is adjusted to 5.5 at 37° C. using HCl. 20 μL of media is first dispensed into 384 well plates and 100 nL of the compounds of invention in DMSO are added to the plate wells. At the same time control compounds and DMSO are added to plates to serve as the positive and negative controls, respectively. 40 μL of parasite culture (9600 parasites) are then added to the plate wells. The plates are then placed into incubators. After 2 day incubation, 20 μL of Cell TiterGlo (Promega) is added to the plate wells. The luminescence signal of each well is measured using the Envision reader (Perkin Elmer). The percentage inhibition of 50%, EC50, is calculated for each of the compounds.

The test system of assay [2] is L. donovani HU3 strain in mouse peritoneal macrophages. Kind of assay: Assay for proliferation of Leishmania parasites in mouse peritoneal macrophages. The note with it: Leishmania donovani, Peritoneal macrophage, read-out: L. donavani Macrophage EC50. The class given is cell-based, Leishmania donovani. The text has this: Assay for Proliferation of Leishmania Parasites
The activity of a compound according to the present invention for inhibition of parasitemai can be assessed by the parasite proliferation assay. The assay measures the increase in the parasite number in the assayed plate well using a DNA intercalating dye, SYBR Green I® dye (INVITROGEN) to stain Leishmania cell nuclei. It is understood that the assays illustrate the invention without in any way limiting the scope of the invention.
L. donovani HU3 strain is propagated by infecting BALB/c mice through tail vein injection with 10^7 Leishmania parasites. Infected mice are allowed to develop infection during 9-11 weeks post-infection. During this time, the parasites accumulate in the infected mouse spleens to large numbers, and the infected mice serve as the source of parasites for the in vitro measurement of compound efficacies. To assay a compound for anti-leishmanial activity, peritoneal macrophages isolated from non-infected BALB/c mice are seeded into 384-well plates at density 2×10^4 macrophages per well in […] of medium (RPMI 1640, 10% […], 10 mM HEPES, 1 mM sodium pyruvate, 1% Pen/Strep). Subsequently, the seeded plates are placed into an incubator set to maintain 37° C. temperature and atmosphere with 5% CO2. The next day, Leishmania parasites are isolated from the spleens of mice infected for 9-11 weeks and 4×10^5 isolated parasites in […] of the above media are added to each plate well. Plates are then returned into incubators and infection is allowed to proceed for 24 hours. After the infection of macrophages is completed, […] of compounds of the invention in the above medium, which also contains 5% DMSO, are added to plate wells containing infected macrophages. At the same time control compounds (miltefosine and amphotericin B) and DMSO are added to plates to serve as the positive and negative controls, respectively. After the compound addition, the plates are returned into incubator and cells infected with parasites are cultured for 5 days. At the end of cultivation, […] of 8% paraformaldehyde is added to plate wells and incubated for 15 min at room temperature. Following the incubation, the paraformaldehyde from plate wells is aspirated, and […] of PBS containing 0.2% Triton X-100 is added to wells. After 15 min incubation, the solution is aspirated from wells again, and replaced with SybrGreen Dye solution in PBS (1:125,000 dilution). Infected cells are imaged with Evotec Opera high-content microscope, and the number of parasites in well is determined by counting parasite nuclei visualized by staining with SybrGreen dye. The percentage inhibition of 50%, EC50, is calculated for each compound.
The inhibitory efficacy of the compounds of the invention in delaying the proliferation of L. donovani in mouse peritoneal macrophages is provided in Table I, infra.

Molecules are shown by their SMILES.

Usually EC50 stands for the midpoint of the concentration-response curve. Take `Nc1ccc(-c2cnc3nc(-c4cc(NC(=O)c5ccco5)ccc4Cl)[nH]c3c2)cc1` [Compound 12]: the values for the EC50 in assay [1] and in assay [2] were 0.258 µM and 0.4 µM, respectively.

`CC(=O)Nc1ccccc1-c1cnc2nc(-c3cc(NC(=O)c4ccco4)ccc3Cl)[nH]c2c1` [Compound 8]: the EC50 in assay [1] was 0.75 µM; in assay [2] it was 1.72 µM.

For `Nc1ccc(-c2cnc3nc(-c4cc(NC(=O)c5ccco5)ccc4Cl)[nH]c3c2)cn1` [Compound 24], the EC50 turned out to be 0.165 µM in assay [1] and 2.89 µM in assay [2].

In the case of `CC(C)OC(=O)Nc1ccc(Cl)c(-c2nc3ncc(-c4ccccc4NC(=O)CN)cc3[nH]2)c1` [Compound 340], the results for the EC50 in assay [1] and in assay [2] were 11.7 µM and 9.8 µM, respectively.

Consider `O=C(Nc1ccc(Cl)c(-c2nc3ncc(-c4ccncc4)cc3[nH]2)c1)c1ccco1` [Compound 10], for which the EC50 in assay [1] is 0.89 µM; in assay [2], 1.12 µM.

In the case of `CCc1noc(C(=O)Nc2ccc(F)c(-c3nc4ncc(Br)cc4o3)c2)n1` [Compound 405], the half-maximal effective concentration (EC50) was over 25 µM in assay [1] and over 50 µM in assay [2].

For `CN(C)C(=O)Nc1ccc(F)c(-c2nc3ncc(Cl)cc3[nH]2)c1` [Compound 354], the EC50 was over 25 µM in assay [1] and over 50 µM in assay [2].

`O=C(Nc1ccc(C(F)(F)F)cc1)Nc1ccc(F)c(-c2nc3ncc(-c4ccc(CN5CCOCC5)cc4)cc3o2)c1` [Compound 395]: the EC50 in assay [1] was found to be 12 µM; in assay [2] it was 6.8 µM.

`CC(C)OC(=O)Nc1ccc(Cl)c(-c2nc3ncc(-c4ccccc4NC(=O)OC(C)C)cc3[nH]2)c1` [Compound 335]: the values for the concentration giving a half-maximal response (EC50) in assay [1] and in assay [2] were 0.6 µM and 1.09 µM, respectively.

As to `O=C(Nc1ccc(Cl)c(-c2nc3ncc(-c4cnn(CCN5CCOCC5)c4)cc3[nH]2)c1)c1ccco1` [Compound 14], the EC50 in assay [1] was found to be 3.7 µM; in assay [2] it was 3.14 µM.

For `Cc1cnc2nc(-c3cc(NC(=O)c4cncc(C#N)c4)ccc3Cl)[nH]c2c1` [Compound 101], the EC50 was 13.5 µM in assay [1] and over 50 µM in assay [2].

Turning to `CN(C)c1ccc(-c2cnc3nc(-c4cc(NC(=O)Nc5ccc(C(F)(F)F)cc5)ccc4F)oc3c2)cn1` [Compound 403], the concentration for a half-maximal effect (EC50) in assay [1] is 17.4 µM; in assay [2] it was over 50 µM.

As for `CNC(=O)c1ccc(-c2cnc3nc(-c4cc(NC(=O)c5ccco5)ccc4Cl)[nH]c3c2)cc1` [Compound 64], the EC50 in assay [1] was 0.68 µM; in assay [2], over 28.9 µM.

For `CN(C)CCn1c(-c2cc(NC(=O)N3CCCC3)ccc2Cl)nc2ncc(Br)cc21` [Compound 387], the EC50 is over 25 µM in assay [1] and over 50 µM in assay [2].

`CC(C)OC(=O)Nc1ccc(Cl)c(-c2nc3ncc(-c4ccc(NC(=O)CN)cc4)cc3[nH]2)c1` [Compound 338]: the figures for the EC50 in assay [1] and in assay [2] were 2.4 µM and 0.42 µM, respectively.

With `COc1cc(C(=O)Nc2ccc(Cl)c(-c3nc4ncc(C)cc4[nH]3)c2)ccn1` [Compound 129], the concentration for a half-maximal effect (EC50) in assay [1] was over 25 µM; in assay [2] it was 27.4 µM.

As for `O=C(Nc1ccc(Cl)c(-c2nc3ncc(Br)cc3n2CCN2CCOCC2)c1)N1CCCC1` [Compound 388], the EC50 in assay [1] was over 25 µM; in assay [2], over 50 µM.

As for `NS(=O)(=O)c1ccc(-c2cnc3nc(-c4cc(NC(=O)c5ccco5)ccc4Cl)[nH]c3c2)cc1` [Compound 66], the figures for the EC50 in assay [1] and in assay [2] were 4.6 µM and over 39.1 µM, respectively.

As for `O=C(Nc1ccc(Cl)c(-c2nc3ncc(-c4c[nH]cn4)cc3[nH]2)c1)N1CCCC1` [Compound 307], the figures for the EC50 in assay [1] and in assay [2] were over 25 µM and over 50 µM, respectively.

As for `Cc1cnc2nc(-c3cc(NC(=O)c4ccnc([S+](C)[O-])n4)ccc3Cl)[nH]c2c1` (stereo not shown) [Compound 154], the EC50 is over 24.1 µM in assay [1] and over 50 µM in assay [2].

Turning to `CC(C)OC(=O)Nc1ccc(-c2cnc3nc(-c4cc(NC(=O)OC(C)C)ccc4Cl)[nH]c3c2)cc1` [Compound 337], the results for the EC50 in assay [1] and in assay [2] were 0.119 µM and 0.295 µM, respectively.

As to `O=C(Nc1ccc(Cl)c(-c2nc3ncc(-c4ccsc4)cc3[nH]2)c1)N1CCCC1` [Compound 300], the EC50 in assay [1] is 0.143 µM; in assay [2] it was 0.289 µM.

As to `Cc1cc2[nH]c(-c3cc(NC(=O)c4ccco4)ccc3Cl)nc2nc1C` [Compound 5], the EC50 in assay [1] is over 25 µM; in assay [2] it was 49.4 µM.

Regarding `O=C(Nc1ccc(F)c(-c2nc3ncc(Br)cc3o2)c1)c1cnco1` [Compound 408], the EC50 was 3.8 µM in assay [1] and over 50 µM in assay [2].

`O=C(Nc1ccc(F)c(-c2nc3ncc(Br)cc3o2)c1)c1cocn1` [Compound 410]: the EC50 is over 25 µM in assay [1] and over 50 µM in assay [2].

In the case of `COCCOc1ccc(-c2cnc3nc(-c4cc(NC(=O)N5CCCC5)ccc4Cl)[nH]c3c2)cc1` [Compound 303], the EC50 in assay [1] was 0.146 µM; in assay [2] it was 0.4 µM.

For the compound `O=C(Nc1ccc(C(F)(F)F)cc1)Nc1ccc(F)c(-c2nc3ncc(-c4ccc(NCCN5CCOCC5)nc4)cc3o2)c1` [Compound 391], the EC50 in assay [1] was over 25 µM; in assay [2], over 12.3 µM.

Regarding `O=C(CCN1CCCCC1)Nc1ccc(F)c(-c2nc3ncc(Cl)cc3[nH]2)c1` [Compound 359], the EC50 is over 25 µM in assay [1] and over 35.3 µM in assay [2].

For the compound `CNC(=O)c1ccc(-c2cnc3nc(-c4cc(NC(=O)c5ccco5)ccc4Cl)[nH]c3c2)cn1` [Compound 54], the EC50 in assay [1] worked out at 0.226 µM; in assay [2], 0.272 µM.

With `Cc1cnc2nc(-c3cc(NC(=O)CCCN(C)C)ccc3F)[nH]c2c1` [Compound 275], the figures for the EC50 in assay [1] and in assay [2] were over 25 µM and over 50 µM, respectively.

As to `Cc1cnc2nc(-c3cc(NC(=O)c4ccno4)ccc3F)[nH]c2c1` [Compound 270], the EC50 was 20 µM in assay [1] and over 50 µM in assay [2].

As to `Cc1cnc2nc(-c3cc(NC(=O)c4ccc(C(F)(F)F)cc4)ccc3Cl)[nH]c2c1` [Compound 153], the EC50 in assay [1] was over 25 µM; in assay [2], 14.9 µM.

`COC(=O)Nc1ccc(-c2cnc3nc(-c4cc(NC(=O)N5CCCC5)ccc4Cl)[nH]c3c2)cc1` [Compound 296]: the EC50 in assay [1] was 0.034 µM; in assay [2], 0.126 µM.

With `Cc1cnc2nc(-c3cc(NC(=O)c4nc(C)oc4C(F)(F)F)ccc3Cl)[nH]c2c1` [Compound 176], the EC50 in assay [1] is over 25 µM; in assay [2], over 50 µM.

On to `CN1CCN(c2ccc(-c3cnc4nc(-c5cc(NC(=O)c6ccco6)ccc5Cl)[nH]c4c3)cc2)CC1` [Compound 22], for which the half-maximal effective concentration (EC50) in assay [1] was determined as 19 µM; in assay [2], 4.6 µM.

On to `O=C(Nc1ccc(Cl)c(-c2nc3ncc(-c4ccc(OCCN5CCCC5)cc4)cc3[nH]2)c1)c1ccco1` [Compound 55], for which the EC50 in assay [1] stood at 2.06 µM; in assay [2], 6.7 µM.

Consider `O=C(Nc1ccc(-c2cnc3nc(-c4cc(NC(=O)c5ccco5)ccc4Cl)[nH]c3c2)cc1)NC1CC1` [Compound 45], for which the EC50 in assay [1] was determined as 1.47 µM; in assay [2] it was 3.4 µM.

Turning to `Cc1cnc2nc(-c3cc(NC(=O)c4c(C)noc4C)ccc3Cl)[nH]c2c1` [Compound 105], the EC50 was over 25 µM in assay [1] and over 50 µM in assay [2].

Regarding `O=C(Nc1ccc(Cl)c(-c2nc3ncc(C(F)(F)F)cc3[nH]2)c1)c1cnccn1` [Compound 285], the EC50 in assay [1] was 0.73 µM; in assay [2], 5 µM.

As for `CC(C)c1nnc(C(=O)Nc2ccc(F)c(-c3nc4ncc(Br)cc4o3)c2)o1` [Compound 406], the concentration giving a half-maximal response (EC50) is over 25 µM in assay [1] and over 50 µM in assay [2].

On to `Nc1ccc(-c2cnc3nc(-c4cc(NC(=O)Nc5ccc(C(F)(F)F)cc5)ccc4F)oc3c2)cn1` [Compound 400], for which the EC50 in assay [1] was determined as 1.62 µM; in assay [2], 4 µM.
